Like-named read-outs stand apart in the source and are kept apart here.
Key:
[1] = tested on: herpes simplex type 1 virus; experiment: animal or person; format: in vivo, mice (Swiss albino); conditions: intraperitoneally, -24, 0, +24 hr, mice, day 21, disodium salt; for ED50: Human alphaherpesvirus 1, ip, 504 h, read-out: PD50 (Protective Dose50)
[2] = tested on: herpes simplex type 2 virus; experiment: animal or person; format: in vivo, mice (Swiss albino); conditions: Human alphaherpesvirus 2, ip, 504 h, intraperitoneally, -24, 0, +24 hr, mice, day 21, read-out: PD50 (Protective Dose50)
pseudorabies virus = experiment: animal or person; format: in vivo, mice (Swiss albino); conditions: Suid alphaherpesvirus 1, in Mus musculus, ip, 504 h, read-out: PD50 (Protective Dose50)
Ehrlich carcinoma = conditions: for C/T Index: Ehrlich carcinoma; for No. survivors/No. tested: mouse, in vivo, ip
leukemia L1210 ascites = experiment: Leukemia L1210 ascites in mice; format: in vivo; conditions: 100 mg/kg intraperitoneally, BDF1 mice
KA-31 = conditions: for activity against KA-31 solid tumor (in words): 14 ip treatments
Marek's disease = conditions: poultry; U.S. Pat. No. 3,836,650; cited from earlier work
herpes simlpex infection = conditions: oral and topical; Shipkowitz et al. 1973; cited from earlier work

## Nc1ncnc2c1ncn2[C@H]1C[C@H](O)[C@@H](COP(=O)(O)CC(=O)O)O1 [2'-Deoxyadenosine-5'-monocarboxymethylphosphonate, monoacetonate]
[1]
  ED50: 444 mg/kg

## O=C(O)CP(=O)(O)OC[C@H]1O[C@@H](n2cc(I)c(=O)[nH]c2=O)C[C@@H]1O [5-Iodo-2'-deoxyuridine-5'-mono-carboxymethylphosphonate]
[1]
  ED50: 110 mg/kg

## Nc1ncnc2c1ncn2[C@@H]1O[C@H](COP(=O)(O)CC(=O)O)[C@@H](O)[C@H]1O [Adenosine-5'-mono-carboxymethylphosphonate]
[2]
  ED50: 575 mg/kg
Pseudorabies virus
  ED50: 386 mg/kg
[1]
  ED50: 180 mg/kg

## O=C(O)CP(=O)(O)OC[C@H]1O[C@@H](n2cc(F)c(=O)[nH]c2=O)C[C@@H]1O [Compound A, 5-Fluoro-2-deoxyuridine-5'-mono-carboxymethylphosphonate]
Ehrlich carcinoma; 6.25 mg/kg
  activity against Ehrlich carcinoma (in words): inactive
  No. survivors/No. tested: 16/16
Ehrlich carcinoma; 12.5 mg/kg
  activity against Ehrlich carcinoma (in words): active
  No. survivors/No. tested: 24/24
Ehrlich carcinoma; 25 mg/kg
  activity against Ehrlich carcinoma (in words): active
  No. survivors/No. tested: 23/24
Ehrlich carcinoma; 50 mg/kg
  activity against Ehrlich carcinoma (in words): active
  No. survivors/No. tested: 21/24
Ehrlich carcinoma; 6.25 mg/kg ip × 8
  C/T Index: 1.5
Ehrlich carcinoma; 12.5 mg/kg ip × 8
  C/T Index: 2.4
Ehrlich carcinoma; 25 mg/kg ip × 8
  C/T Index: 3.4
Ehrlich carcinoma; 50 mg/kg ip × 8
  C/T Index: 12.1
Leukemia L1210 ascites
  activity against leukemia L1210 ascites (in words): inactive
KA-31; 6.25 mg/kg
  activity against KA-31 solid tumor (in words): not at 6.25 mg/kg
KA-31; 12.5 mg/kg
  activity against KA-31 solid tumor (in words): activity was observed
KA-31; 25 mg/kg
  activity against KA-31 solid tumor (in words): activity was observed
KA-31; KA-31, 6.25 mg/kg ip × 14
  C/T Index: 1.8
KA-31; KA-31, 12.5 mg/kg ip × 14
  C/T Index: 3.8
KA-31; KA-31, 25 mg/kg ip × 14
  C/T Index: 13.8
Sarcoma 180; 12.5 mg/kg
  activity against sarcoma 180 (in words): inactive
Sarcoma 180; 25 mg/kg
  activity against sarcoma 180 (in words): active
Sarcoma 180; 50 mg/kg
  activity against sarcoma 180 (in words): active
Sarcoma 180; sarcoma 180, 12.5 mg/kg ip × 8
  C/T Index: 1.7
Sarcoma 180; sarcoma 180, 25 mg/kg ip × 8
  C/T Index: 2.2
Sarcoma 180; sarcoma 180, 50 mg/kg ip × 8
  C/T Index: 5.9

## Nc1nc2c(ncn2[C@@H]2O[C@H](COP(=O)(O)CC(=O)O)[C@@H](O)[C@H]2O)c(=O)[nH]1 [Guanosine-5'-mono-carboxymethylphosphonate]
[1]
  ED50: 144 mg/kg

## O=C(O)CP(=O)(O)O [Phosphonoacetic acid]
Marek's disease
  usefulness in combating Marek's disease (in words): useful in combating Marek's disease in poultry
Herpes simlpex infection
  antiviral activity against herpes simplex infection (in words): antiviral agent exhibiting oral and topical activity against herpes simlpex infection

## Cc1cn([C@H]2C[C@H](O)[C@@H](COP(=O)(O)CC(=O)O)O2)c(=O)[nH]c1=O [Thymidine-5'-mono-carboxymethylphosphonate]
[1]
  ED50: 185 mg/kg

## O=C(O)CP(=O)(O)OC[C@H]1O[C@@H](n2ccc(=O)[nH]c2=O)[C@H](O)[C@@H]1O [Uridine-5'-mono-carboxymethylphosphonate]
[1]
  ED50: 127 mg/kg

## Adenosine-2'-(or 3'),5'-bis-carboxymethylphosphonate
[1]; 30240 min
  PD50 (Protective Dose50): 197 mg/kg

Reference: patent publication US4056673A, “Phosphonoacetic acid derivatives of nucleosides” (Hoffmann-La Roche Inc., priority 1976, dated 1977)
